Patent publication US20230150929A1, “SELECTIVE NON-CYCLIC NUCLEOTIDE ACTIVATORS FOR THE CAMP SENSOR EPAC1” (The Board of Regents of The University of Texas System, priority 2020, published 2023)

Assays:
PKA = PKA activation (VASP phosphorylation, western blot) in U2OS-EPAC1 cells; assay type: cell-based; conditions: 100 µM test compound, FIG. 5
Protocol: FIG. 5. PKA activation results of representative newly discovered EPAC1 agonists. U2OS cells stably transfected with EPAC1 were treated with 100 µM of test compounds, cyclic nucleotide EPAC1 agonist 2 or 10 µM of forskolin and rolipram (F/R), cyclic AMP elevating agents, as a positive control. Active, phosphorylated VASP (P-VASP) was visualized using a phospho-specific, anti-VASP antibody. None of the test compounds promoted VASP phosphorylation in cells.
PKA and GPCR Selectivity. To investigate the EPAC selectivity of these EPAC agonists, compounds 25g, 25n and 25q were selected for further PKA activation studies, and the results are shown in FIG. 5. PKA activation was assessed by monitoring phosphorylation state of a downstream PKA effector, vasodilator-stimulated phosphoprotein (VASP).
(§1) SDS-PAGE and Western Blotting. Samples were prepared by mixing equal volumes of cell lysate and 2x SDS sample loading buffer and denaturing for 5 min at 95° C., unless indicated otherwise. Protein samples were separated by SDS-PAGE on 10% (v/v) polyacrylamide gels, for EPAC1 and VASP, or on 12.5% (v/v), for Rap1, and then transferred to nitrocellulose membranes. Membranes were then blocked for 1 h at room temperature in 5% (w/v) non-fat dry milk or 5% (w/v) BSA in Tris-buffered saline containing 0.1% (v/v) Tween 20, followed by an overnight incubation with primary antibody diluted in blocking buffer at 4° C. Subsequently, the membranes were incubated with appropriate horseradish peroxidase-conjugated secondary antibodies for 1 h at room temperature. For signal detection the SuperSignal West Pico PLUS Chemiluminescent Substrate (Thermo Scientific) was used. Images were acquired using the Fusion FX7 camera platform (Vilber). Densitometry was performed with ImageJ.

EPAC1 = target: T1, EPAC1 (Homo sapiens, UniProt O95398); assay: EPAC1 immunoprecipitation with activation-selective antibody in HEK293T cells; assay type: cell-based; set-up: expressed in transfected cells; conditions: versus vehicle-treated control, FIG. 10
T1 sequence (O95398 1-923): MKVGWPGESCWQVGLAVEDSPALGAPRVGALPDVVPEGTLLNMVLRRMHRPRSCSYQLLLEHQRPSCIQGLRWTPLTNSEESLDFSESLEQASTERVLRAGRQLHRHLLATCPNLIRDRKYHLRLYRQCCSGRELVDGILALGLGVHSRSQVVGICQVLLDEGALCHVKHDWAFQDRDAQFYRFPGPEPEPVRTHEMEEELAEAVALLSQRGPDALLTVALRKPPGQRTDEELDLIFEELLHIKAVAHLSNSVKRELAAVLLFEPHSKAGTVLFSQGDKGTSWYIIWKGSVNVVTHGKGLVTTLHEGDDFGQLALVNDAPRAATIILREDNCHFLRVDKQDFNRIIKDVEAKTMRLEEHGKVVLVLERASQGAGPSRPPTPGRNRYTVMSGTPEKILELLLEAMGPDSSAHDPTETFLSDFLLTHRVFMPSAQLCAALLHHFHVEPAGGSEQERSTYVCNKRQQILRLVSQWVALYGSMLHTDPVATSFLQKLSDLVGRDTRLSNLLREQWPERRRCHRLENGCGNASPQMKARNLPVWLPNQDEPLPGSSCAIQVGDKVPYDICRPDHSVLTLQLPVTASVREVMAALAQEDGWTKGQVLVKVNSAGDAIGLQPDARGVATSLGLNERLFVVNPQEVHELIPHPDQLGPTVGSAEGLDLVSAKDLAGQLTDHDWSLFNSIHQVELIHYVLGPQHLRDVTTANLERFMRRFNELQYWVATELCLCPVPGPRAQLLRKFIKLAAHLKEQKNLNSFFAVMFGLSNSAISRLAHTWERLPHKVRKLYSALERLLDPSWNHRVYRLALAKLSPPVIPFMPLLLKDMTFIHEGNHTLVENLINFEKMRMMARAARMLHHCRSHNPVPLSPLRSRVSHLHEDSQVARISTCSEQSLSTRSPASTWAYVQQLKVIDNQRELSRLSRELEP
Protocol: FIG. 10. Ability of selected compounds to interact with EPAC1 in cells. HEK293T cells stably transfected with EPAC1 were treated with hit compounds from the screen. EPAC1 was immunoprecipitated from cell lysates using an activation-selective antibody, visualized by western blotting and its levels were quantified densitometrically. Cyclic nucleotide EPAC1 agonist 2 was used as positive control. […] Data from at least three independent experiments are presented in the bar graph as mean ± SEM with significant increases in immunoprecipitated EPAC1 levels in comparison to vehicle-treated control indicated; ^∗∗ p < 0.01, ^∗∗∗ p < 0.001.
as §1

EPAC1-ΔDEP (aa. 149-881) = target: T2, EPAC1-ΔDEP (aa. 149-881) (Homo sapiens, UniProt O95398); assay: 8-NBD-cAMP competition binding assay, EPAC1-ΔDEP; conditions: eleven-point dose-response 1-100 µM; mean ± SEM
T2 construct: EPAC1-ΔDEP (149-881); GST (N); made in house; host or cells: Escherichia coli BL21 Star (DE3)
T2 sequence (O95398 149-881 isoform O95398-3): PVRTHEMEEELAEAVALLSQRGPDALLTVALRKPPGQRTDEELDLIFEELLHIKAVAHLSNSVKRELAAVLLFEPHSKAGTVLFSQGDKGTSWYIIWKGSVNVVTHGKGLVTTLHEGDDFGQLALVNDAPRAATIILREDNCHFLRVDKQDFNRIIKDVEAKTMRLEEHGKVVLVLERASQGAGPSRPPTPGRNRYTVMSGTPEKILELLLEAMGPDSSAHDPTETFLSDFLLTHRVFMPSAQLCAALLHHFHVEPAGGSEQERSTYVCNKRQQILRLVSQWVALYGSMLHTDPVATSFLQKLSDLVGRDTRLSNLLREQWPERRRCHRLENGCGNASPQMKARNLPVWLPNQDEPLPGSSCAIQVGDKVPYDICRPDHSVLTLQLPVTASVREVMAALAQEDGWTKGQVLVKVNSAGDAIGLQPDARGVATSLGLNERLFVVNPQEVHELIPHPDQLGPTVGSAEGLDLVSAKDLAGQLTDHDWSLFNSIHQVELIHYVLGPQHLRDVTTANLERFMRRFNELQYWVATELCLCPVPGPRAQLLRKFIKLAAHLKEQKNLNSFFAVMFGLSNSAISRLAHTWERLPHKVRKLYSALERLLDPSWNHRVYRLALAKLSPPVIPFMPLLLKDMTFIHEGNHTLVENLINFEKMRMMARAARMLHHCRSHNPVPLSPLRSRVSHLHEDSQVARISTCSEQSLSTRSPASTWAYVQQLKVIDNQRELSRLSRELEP
Source text: Recombinant Protein Purification.
8-NBD-cAMP Competition Binding Assay.

| SMILES | PKA activation (VASP phosphorylation) (PKA) | EPAC1 immunoprecipitation with activation-selective antibody (EPAC1) | IC50 (EPAC1-ΔDEP (aa. 149-881)) [µM] |
| --- | --- | --- | --- |
| COc1ccc(S(=O)(=O)NC(=O)COc2ccc3ccccc3c2)c(OC)c1 [Compound 25g, N-((2,4-Dimethoxyphenyl)sulfonyl)-2-(naphthalen-2-yloxy)acetamide] | did not induce any PKA activation | significant increases in EPAC1 immunoprecipitation | 4.9 |
| COc1ccc2ccc(OCC(=O)NS(=O)(=O)c3ccc(N)cc3OC)cc2c1 [Compound 25n, N-((4-Amino-2-methoxyphenyl)sulfonyl)-2-((7-methoxynaphthalen-2-yl)oxy)acetamide] | did not induce any PKA activation | significant increases in EPAC1 immunoprecipitation | 0.6 |
| COc1ccc2ccc(OCC(=O)NS(=O)(=O)c3ccc4ccccc4c3)cc2c1 [Compound 25q, 2-((7-Methoxynaphthalen-2-yl)oxy)-N-(naphthalen-2-ylsulfonyl)acetamide] | did not induce any PKA activation | significant increases in EPAC1 immunoprecipitation | 0.5 |
